The values that follow come from article PMC4268712, “Steroidal and non-steroidal third-generation aromatase inhibitors induce pain-like symptoms via TRPA1” (Nature Communications, 2014).

In assay [1] the target is T1, transient receptor potential ankyrin 1 (TRPA1) (Homo sapiens, UniProt O75762). Briefly: calcium imaging in HEK293 cells transfected with wild-type hTRPA1 ([…]). It is filed as cell-based.
Assay [2] addresses T1, transient receptor potential ankyrin 1 (TRPA1). Briefly: calcium imaging (and whole-cell patch clamp) in hTRPA1-HEK293 cells, blocked by HC-030031, absent in untransfected cells. It is filed as cell-based.

Broadly, the EC50 is the concentration that produces a half-maximal response.

Structures are written as SMILES.

T1 sequence (O75762 whole entry): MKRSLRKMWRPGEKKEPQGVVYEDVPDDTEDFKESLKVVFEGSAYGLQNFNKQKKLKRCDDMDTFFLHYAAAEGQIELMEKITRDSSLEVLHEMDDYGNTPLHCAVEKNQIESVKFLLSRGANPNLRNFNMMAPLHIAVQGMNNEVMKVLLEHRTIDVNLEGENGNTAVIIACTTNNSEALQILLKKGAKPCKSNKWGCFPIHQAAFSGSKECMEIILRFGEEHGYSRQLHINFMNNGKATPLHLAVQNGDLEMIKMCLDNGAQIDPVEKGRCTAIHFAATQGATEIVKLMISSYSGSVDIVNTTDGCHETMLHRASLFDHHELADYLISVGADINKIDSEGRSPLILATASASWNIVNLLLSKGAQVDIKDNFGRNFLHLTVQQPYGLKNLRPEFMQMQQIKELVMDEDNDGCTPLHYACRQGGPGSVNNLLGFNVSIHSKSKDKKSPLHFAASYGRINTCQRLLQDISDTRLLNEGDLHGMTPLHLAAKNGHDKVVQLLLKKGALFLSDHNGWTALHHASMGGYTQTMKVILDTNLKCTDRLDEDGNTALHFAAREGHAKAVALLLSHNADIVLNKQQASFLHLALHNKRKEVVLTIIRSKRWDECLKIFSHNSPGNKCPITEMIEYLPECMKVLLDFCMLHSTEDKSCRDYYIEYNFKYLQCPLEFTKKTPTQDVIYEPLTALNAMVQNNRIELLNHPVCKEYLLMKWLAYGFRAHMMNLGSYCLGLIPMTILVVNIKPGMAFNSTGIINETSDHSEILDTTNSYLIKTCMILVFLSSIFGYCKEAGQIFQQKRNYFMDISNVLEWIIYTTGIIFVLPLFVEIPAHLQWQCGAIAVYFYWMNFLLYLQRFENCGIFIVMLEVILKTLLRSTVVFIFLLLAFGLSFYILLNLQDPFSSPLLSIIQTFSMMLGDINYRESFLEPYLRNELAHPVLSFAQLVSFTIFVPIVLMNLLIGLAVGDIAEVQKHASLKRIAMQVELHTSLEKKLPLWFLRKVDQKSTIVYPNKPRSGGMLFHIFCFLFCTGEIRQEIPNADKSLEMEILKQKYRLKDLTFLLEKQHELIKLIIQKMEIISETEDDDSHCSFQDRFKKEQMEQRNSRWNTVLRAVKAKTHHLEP

On to `CC1CCC(C(C)C)C(O)C1` (stereo not shown) [menthol], for which the “calcium imaging in HEK293 cells transfected with wild-type hTRPA1 (100 μM)” value in assay [1] is “HEK293 cells transfected with the cDNA codifying for wild-type hTRPA1 (WT) respond to all the drugs”. As to `CC(C)(C#N)c1cc(Cn2cncn2)cc(C(C)(C)C#N)c1` [ANA, anastrozole], the EC50 in assay [2] worked out at 134 µM. For `C=C1C[C@@H]2[C@H](CC[C@]3(C)C(=O)CC[C@@H]23)[C@@]2(C)C=CC(=O)C=C12` [EXE, exemestane], in assay [2], the EC50 is 58 µM. Take `N#Cc1ccc(C(c2ccc(C#N)cc2)n2cncn2)cc1` [LTZ, letrozole]: the EC50 in assay [2] was determined as 69 µM.
